{"source": "paper PMC5702336", "about": "“Critical Role of Hepatic Cyp450s in the Testis-Specific Toxicity of (5R)-5-Hydroxytriptolide in C57BL/6 Mice” (Frontiers in Pharmacology, 2017)", "key": {"WT and KO mice": {"tested_on": "WT and KO mice", "assay": "15-day oral toxicological study in WT and hepatic Cpr KO mice (organ weights, H&E, TUNEL, serum chemistry)", "assay_type": "in vivo, mouse", "text": "Animal use protocols were approved by the Institutional Animal Care and Use Committee of the Shanghai Institute of Materia Medica (Shanghai, China), IACUC No. 2016-10-RJ-136. The Cpr knockout (KO) mice were a gift from Professor Xinxin Ding (Wadsworth Center, Albany, NY, USA). Procedures for animal breeding and genotyping were reported previously (Wu et al., [2005]). Eight to twelve weeks old male KO mice and their WT littermates on a mixed C57BL/6 and 129/Sv genetic background were used in this study. All animals were provided with a certified standard diet and tap water ad libitum during experiments. All animals were maintained under controlled temperature with a 12 h:12 h light/dark cycle. All efforts were made to minimize animal discomfort and illness, and mice were anesthetized with pentobarbital sodium (150 mg/kg, i.p.) before sample collection. No animals died during the experiment.\nFor toxicity experiments, mice (n = 3/group) were treated with LLDT-8 (0.5 or 1.0 mg/kg) consecutively administered by gavage for 15 days. Controls received saline. Mice were killed on the 15th-day post-administration and blood, liver, kidney, spleen, testes, and epididymis were collected. About 500 μL blood samples were collected from the heart. The main lobe of the liver, kidney, spleen, and epididymis was fixed in 10% neutral buffered formalin for histological examination, and the left testicle was fixed in modified Davidson's buffer (30% of a 37–40% solution of formaldehyde, 15% ethanol, 5% glacial acetic acid, and 50% distilled H2O) for 16 h followed by 10% neutral buffered formalin for 24 h (Latendresse et al., [2002]). Tissue sections were stained with hematoxylin and eosin (H&E). Remaining tissues were stored at −80°C for RNA and protein extraction.\nSera were assayed for Urea, creatine (CRE), alanine aminotransferase (ALT), and aspartate transaminase (AST) using an automatic HITACHI Clinical Analyzer Model 7080 (Hitachi High-Technologies Corporation, Tokyo, Japan). The intercoefficients of variability in this assay were1.1% (ALT), 0.9% (AST), 1.2% (Urea) and 1.4% (CRE). The intracoefficients of variability in this assay were 2.0% (ALT), 0.9% (AST), 1.2% (Urea) and 5.1% (CRE).\nTUNEL assays were performed according to the manufacturer's protocol (In Situ Cell Death Kit, Roche Diagnostics, Indianapolis, IN). In brief, the paraffin-embedded testis tissue samples were deparaffinized three times in exchanges wash of xylene. The testis sections were then gradually rehydrated using decreasing ethanol concentrations (100, 95, 90, 80, and 70%) followed by PBS (pH = 7.4). After digestion with proteinase K (15 μg/mL, Cat. No. 539480, Lot. No. D00148754, Millipore, USA), paraffin-embedded tissue sections were labeled with a TUNEL reaction mixture, which contained terminal deoxynucleotidyl transferase incorporated with fluorescein. And 1 μg/mL DAPI (Sigma, USA) to used to reveal nuclear DNA. After staining, images were obtained with a fluorescent microscope (NIKON TS2, Japan)."}, "[1]": {"assay": "Toxicokinetics of LLDT-8 in WT and liver-Cpr KO mice after a single oral dose (plasma and tissue levels by LC-MS/MS)", "assay_type": "in vivo, mouse", "settings": "for T1/2: mean ± SD, n = 5", "procedure": "For toxicokinetic experiments, mice (n = 5–6/group for each time point) were treated with a single dose of LLDT-8 at (0.5 or 1.0 mg/kg) by oral gavage, creating 4 treatment groups: 0.5 mg/kg LLDT-8-treated WT and KO mice, and 1.0 mg/kg LLDT-8-treated WT and KO mice. After LLDT-8 treatment, 20 μL blood samples were collected at 5, 10, 20, 30, 45, 60, 90, 120, and 180 min from tail vein. Plasma was separated by centrifugation at 3,000 rpm for 5 min and kept at −80°C until analysis. Tissues including the liver, kidney, testes, and epididymis were also collected from individual mice at 30 and 180 min after dosing and were weighed and homogenized in saline (1.0 g wet weight/mL) on ice. LLDT-8 was then extracted from the plasma or the tissue homogenates with an equal volume of ethyl acetate and dried under nitrogen. The residues were reconstituted in 50 μL of mobile phase for analysis.\nThe quantification of LLDT-8 in samples was performed on Shimadzu 20A HPLC system (Shimadzu, Kyoto, Japan) equipped with an autosampler coupled to Shimadzu 8030 triple quadrupole mass spectrometer (Shimadzu, Kyoto, Japan). Separations were conducted under isocratic conditions. The mobile phase consisting of acetonitrile and water with 0.1% formic acid (50:50, v/v) was set at a flow rate of 0.2 mL/min. An electrospray interface in negative ionization mode was used. ESI source parameters were as followed: high purity drying-gas (N2) flow rate 8 L/min, temperature 400°C, nebulizer pressure 25 psi. Multiple reaction monitoring (MRM) was used to quantify LLDT-8 (m/z 421.20 [M+COO]- → 45.10, fragmentor 110 eV, collision energy −20 eV). Analytical data were processed using the labsolution software package (Shimadzu, Kyoto, Japan) consisting of qualitative and quantitative software.\nStandard curves for LLDT-8 were prepared by spiking known amounts of the LLDT-8 standard into plasma or tissue homogenate samples prepared from untreated mice. LLDT-8 concentrations in biological samples were determined by comparisons with standard curves. Pharmacokinetics were calculated using Kinetica software (version 4.4.1; Thermo Fisher Scientific Inc, Woburn, MA)."}, "[2]": {"settings": "after LLDT-8 treatment, 15 days"}, "[3]": {"settings": "KO mice, plasma, 1.0 mg/kg single oral dose"}, "[4]": {"settings": "WT mice, plasma, 1.0 mg/kg single oral dose"}}, "note": "Entries after “also recorded” stand apart in the source; their conditions may differ.", "data": [{"compound": "CC(C)[C@]12O[C@H]1[C@@H]1O[C@]13[C@]1(O[C@H]1C[C@@]1(O)C4=C(CC[C@]31C)C(=O)OC4)[C@@H]2O", "note": "[LLDT-8, (5R)-5-hydroxytriptolide]", "values": [{"measurement": "epididymis weight", "setting": "WT and KO mice; 0.5–1 mg/kg by gavage 15 days", "result": "not changed"}, {"measurement": "testes weight", "setting": "WT and KO mice; 0.5–1 mg/kg by gavage 15 days", "result": "dose-dependently reduced"}, {"measurement": "testis histology (H&E) in KO mice compared to WT mice", "setting": "WT and KO mice; 0.5–1 mg/kg by gavage 15 days", "result": "reduced germinal cell layers; also recorded: severe vacuolar degeneration; also recorded: absence of spermatids development"}, {"measurement": "body weight", "setting": "WT and KO mice; 0.5–1 mg/kg by gavage 15 days, WT and KO mice", "result": "did not alter"}, {"measurement": "hematology and spleen in KO mice", "setting": "WT and KO mice; 15 days by gavage", "result": "induced hematological change and enlarged spleen"}, {"measurement": "liver injury and kidney damage", "setting": "WT and KO mice; 15 days by gavage, WT and KO mice", "result": "did not cause liver injury and kidney damage"}, {"measurement": "TUNEL-positive foci in testes of WT mice vs WT mice with saline", "setting": "WT and KO mice; [2]", "result": "apparently increased"}, {"measurement": "number of TUNEL positive foci in testis, KO mice vs WT mice", "setting": "WT and KO mice; [2]", "result": "much higher"}, {"measurement": "LLDT-8 levels in liver, kidney, testis and epididymis of KO mice relative to WT mice", "setting": "[1]; 30 min after 1.0 mg/kg oral dose", "result": "2–3 folds"}, {"measurement": "AUC", "setting": "[1]; [3]", "result": "753.52 ± 76.39 [ng/ml] × h"}, {"measurement": "CL (oral clearance)", "setting": "[1]; [3]", "result": "22.2 ± 2", "unit": "mL/min/kg"}, {"measurement": "Cmax", "setting": "[1]; [3]", "result": "57.97 ± 8.28", "unit": "ng/mL"}, {"measurement": "Tmax", "setting": "[1]; [3]", "result": "19.8 ± 6.6", "unit": "min"}, {"measurement": "T1/2", "setting": "[1]; [3]", "result": "35.4 ± 3.6", "unit": "min"}, {"measurement": "CL (oral clearance)", "setting": "[1]; [4]", "result": "68.8 ± 8.83", "unit": "mL/min/kg"}, {"measurement": "Cmax", "setting": "[1]; [4]", "result": "29.95 ± 2.81", "unit": "ng/mL"}, {"measurement": "Tmax", "setting": "[1]; [4]", "result": "10.2 ± 0", "unit": "min"}, {"measurement": "T1/2", "setting": "[1]; [4]", "result": "18.6 ± 1.8", "unit": "min"}, {"measurement": "clearance in KO mice compared to WT mice", "setting": "[1]; single oral dose", "result": "marked decrease"}, {"measurement": "increase in AUC in KO mice", "setting": "[1]; single oral dose, KO vs WT", "result": "3.1 folds to WT mice"}, {"measurement": "increase in Cmax in KO mice", "setting": "[1]; single oral dose, KO vs WT", "result": "1.9 folds to WT mice"}, {"measurement": "increase in half-life in KO mice", "setting": "[1]; single oral dose, KO vs WT", "result": "1.9 folds to WT mice"}]}]}
